Results taken from patent US9687483B2, “Treatment of cerebral cavernous malformations and cerebral aneurysms with Rho kinase inhibitors” (priority 2015, dated 2017).
Where “and” joins values, the source holds several entries; their conditions need not be identical. Identical values can stand only once. Like-named read-outs stand apart in the source and are kept apart here.

How the values were obtained:
Caco-2 cell monolayers [1] = details: for Transport mechanism across Caco-2 monolayers: from B to A/A to B Papp ratios; for Caco-2 cell permeability (classification): from measured Papp values
[2] = tested on: ROCK II recombinantly-produced kinase domain; details: ROCK II versus ROCK I
[3] = target: ROCK II recombinantly-produced kinase domain (Homo sapiens (Human), UniProt O75116); details: read-out: ROCK II IC50; ATP 10 μM, substrate 200 nM; Fasudil mean ± SD of 3-4 experiments; BA-1049 two individual experiments
HUVEC cells [4] = tested on: HUVEC cells
HUVEC cells [5] = test: Endothelial cell actin cytoskeleton, Rhodamine-phalloidin staining; assay type: cell-based, human; details: 10 μM or 25 μM
[6] = target: ROCK I recombinantly-produced kinase domain (Homo sapiens (Human), UniProt Q13464); details: read-out: ROCK I IC50; ATP 10 μM, substrate 200 nM; Fasudil mean ± SD of 3-4 experiments; BA-1049 two individual experiments
cadherin in HUVEC cells = test: Cadherin expression in HUVEC, Western blot; assay type: cell-based, human; details: 50 μM, 24 hr, vs control; p<0.05
Caco-2 cell monolayers [7] = test: Caco-2 permeability assay
HUVEC cells [8] = test: In vitro endothelial tubulogenesis assay on ECMatrix; assay type: cell-based, human; details: 10 or 50 μM (or μg/mL); 6 hr to 16 hr; vs untreated cells
occludin in HUVEC cells = test: Occludin expression in HUVEC, Western blot; assay type: cell-based, human; details: for Effect on junctional protein expression at lower dose: 25 μM
in vitro [9] = details: human, Caco-2, pH 7.4
[10] = tested on: induced intracranial saccular aneurysms in Sprague Dawley rats; test: Reduction of prevalence/size of existing aneurysms in vivo; parameters: species or system rat
[11] = tested on: induced intracranial saccular aneurysms in Sprague Dawley rats; test: Prophylactic reduction of intracranial aneurysm burden in vivo; parameters: species or system rat; details: vs control rats
[12] = known values for controls; cited from earlier work
in vitro [13] = details: human, plasma
[14] = human plasma, 24 hr dialysis, 37° C., mean of 2 replicates
[15] = both, human, 24 h, 35 µM, pH 7.4
[16] = both, human, plasma, 24 h, 35 µM, pH 7.4

Sequence of ROCK I recombinantly-produced kinase domain (Q13464 76-338): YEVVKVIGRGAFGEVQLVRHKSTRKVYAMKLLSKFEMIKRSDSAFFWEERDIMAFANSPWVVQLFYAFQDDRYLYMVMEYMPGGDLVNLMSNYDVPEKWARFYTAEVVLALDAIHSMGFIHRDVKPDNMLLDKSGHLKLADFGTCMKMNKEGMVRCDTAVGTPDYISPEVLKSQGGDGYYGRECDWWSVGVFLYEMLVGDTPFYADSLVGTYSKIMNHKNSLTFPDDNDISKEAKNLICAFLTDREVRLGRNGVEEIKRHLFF

SMILES: CC(N)C1CCN(S(=O)(=O)c2cccc3cnccc23)CC1.Cl.Cl (racemic) [BA-1049]
- Papp A to B (Caco-2 cell monolayers [1]; apical to basolateral, 60 min, pH 7.4): 10.7 ×10⁻⁶ cm/s
- Papp B to A (Caco-2 cell monolayers [1]; basolateral to apical, 60 min, pH 7.4): 14.1 ×10⁻⁶ cm/s
- Transport mechanism across Caco-2 monolayers (Caco-2 cell monolayers [1]): passively transported
- Caco-2 cell permeability (classification) (Caco-2 cell monolayers [1]): intermediate to high
- Selectivity for Rock II [2]: 13.1 -fold
- IC50 [3]: 1600 nM and 940 nM
- Disruption of proliferation compared with Fasudil at a given concentration (HUVEC cells [4]; 72 hr): did not disrupt proliferation to the same extent as Fasudil
- Proliferation of endothelial cells (HUVEC cells [4]; 72 hr incubation): reduced proliferation
- Concentration at which decrease in cell proliferation appears (HUVEC cells [4]; 72 hr, p<0.05 or p<0.01): 1 µM
- Effect on actin stress fibers (HUVEC cells [5]): disrupted stress fibers
- Effect on junctional (peripheral) actin distribution (HUVEC cells [5]): little to no effect
- IC50 [6]: 21000 nM
- Cadherin increase (cadherin in HUVEC cells): 1.2 fold
- Bound (human plasma proteins; [14]): 7.26%
- Unbound (human plasma proteins; [14]): 92.7%
- B-A/A-B Papp Ratio (Caco-2 cell monolayers [7]): 1.31
- Endothelial cell tube formation (HUVEC cells [8]): some tubes are visible but are not always closed and are thin
- Effect on junctional protein expression at lower dose (occludin in HUVEC cells): no significant effect
- Occludin increase (occludin in HUVEC cells; 50 μM, 24 hr, vs control, p<0.05): 1.3 fold

SMILES: O=S(=O)(c1cccc2cnccc12)N1CCCNCC1 [Fasudil]
- Transport mechanism across Caco-2 monolayers (Caco-2 cell monolayers [1]): passively transported
- Caco-2 cell permeability (classification) (Caco-2 cell monolayers [1]): high
- Effect on junctional (peripheral) actin distribution (HUVEC cells [5]): disrupted the peripheral actin to a greater extent than the stress fibers
- Papp A→B at 60 min, 35 µM (in vitro [9]): 18.9 ×10⁻⁶ cm/s
- Papp B→A at 60 min, 35 µM (in vitro [9]): 18.5 ×10⁻⁶ cm/s
- Total number of saccular aneurysms in 6 mo and 8 mo rats ([10]; vs baseline (4 mo) results): reduces
- Average aneurysm size and area ([10]; vs control rats): reduces
- Level of inflammatory invasion in a given aneurysm ([10]; vs control rats): reduces
- Number of iron deposits near a given aneurysm ([10]; vs control rats): reduces
- Rho kinase activity in the endothelial/smooth muscle cells of the aneurysm wall ([10]; vs control rats): reduces
- Total number of saccular aneurysms ([10]; vs control rats): reduces
- Average aneurysm size and area [11]: reduces
- Level of inflammatory invasion in a given aneurysm [11]: reduces
- Number of iron deposits near a given aneurysm [11]: reduces
- Rho kinase activity in the endothelial and smooth muscle cells of the aneurysm wall [11]: reduces
- Total number of saccular aneurysms ([11]; daily or weekly dose for 2 mo): reduces
- Cadherin increase (cadherin in HUVEC cells): 1.2 fold
- Bound (human plasma proteins; [15]): 19.2%
- Unbound (human plasma proteins; [16]): 81.8%
- Endothelial cell tube formation (HUVEC cells [8]): some tubes are visible but are not always closed and are thin
- Effect on junctional protein expression at lower dose (occludin in HUVEC cells): no significant effect
- Occludin decrease (occludin in HUVEC cells; 50 μM, 24 hr, vs control, p<0.001): 50%

SMILES: OC[C@@H](O)[C@@H](O)[C@H](O)[C@H](O)CO [[^3H]-Mannitol, D-[1-^3H(N)]Mannitol]
- Papp A→B at 60 min (in vitro [9]): 2.62 ± 0.81 ×10⁻⁶ cm/s
- Papp A→B at 60 min, 35 µM (in vitro [9]): 1.01 ± 0.146 ×10⁻⁶ cm/s
- Papp B→A at 60 min (in vitro [9]): 1.36 ± 0.362 ×10⁻⁶ cm/s
- Papp B→A at 60 min, 35 µM (in vitro [9]): 0.821 ± 0.362 ×10⁻⁶ cm/s
- efflux ratio at 60 min, 35 µM (in vitro [9]): 0.81
- % absorption in humans [12]: 15%

SMILES: CC(C)NC[C@H](O)COc1cccc2ccccc12 [[^3H]-Propranolol, L-(−)-[4-^3H]propranolol]
- fraction unbound (in vitro [13]): 0.121
- Papp A→B at 60 min (in vitro [9]): 32.3 ± 5.4 ×10⁻⁶ cm/s
- Papp A→B at 60 min, 35 µM (in vitro [9]): 36 ± 1.65 ×10⁻⁶ cm/s
- Papp B→A at 60 min (in vitro [9]): 31 ± 5.27 ×10⁻⁶ cm/s
- Papp B→A at 60 min, 35 µM (in vitro [9]): 27.8 ± 3.68 ×10⁻⁶ cm/s
- Bound (human plasma proteins; [15]): 91.3%
- Unbound (human plasma proteins; [16]): 8.67%
